Assay results as given in paper PMC6515668, “Liposomes for effective drug delivery to the ocular posterior chamber” (Journal of Nanobiotechnology, 2019).
Where a name gives a salt, the structure may show the parent alone.

Experiments:
[1] = Microdialysis probe recovery and stability (dialysis and retrodialysis); details: retrodialysis, 7 h
Method: Normal saline containing 30% ethanol was chosen as the perfusate for two drugs with opposing polarity, and the flow rate was 1.5 μL/min according to our previous study. Then, an in vitro RR% evaluation was performed via dialysis and retrodialysis. The in vivo stability study was performed using a retrodialysis method, which provided the evidence for the microdialysis method that was used for the in vivo pharmacokinetics study.

ARPE-19 = experiment: In vitro anti-ROS efficacy (H2O2-exposed cells, DCFH-DA); assay type: cell-based, human; details: ARPE-19 exposed to 200 μM H2O2 for 24 h, versus model group
Method: Human retinal pigment epithelial cells (ARPE-19) were maintained in Dulbecco’s modified Eagle’s medium/Ham’s F12 (Gibco) supplemented with 10% fetal bovine serum (Gibco), 100 IU/mL penicillin (Gibco), and 100 μg/mL streptomycin (Gibco) at 37 °C in an atmosphere of 5% CO2. After incubation, cells were exposed to 200 μM H2O2 for 24 h, and fluorescent probes (Beyotime Biotechnology, China) were used to measure intracellular ROS levels (DCFH-DA, 10 mM) according to the manufacturer’s instructions. Before application, CBLs and P-CBLs of a certain volume were diluted with complete culture medium. The final concentration of BBH was 0.0040 μM and 0.0020 μM for CHR in CBLs groups, while 0.0044 μM of BBH, 0.0018 μM for CHR for P-CBLs, respectively. The final drug concentration of CBs was the same as CBLs group. Treated cells were loaded with fluorescent probes in a serum-free medium for 20 min at 37 °C. Then, photographs were taken using a long-term real-time dynamic live cell imaging analyzer.

SMILES	stability in in vivo analysis [1]	intracellular ROS levels (relative fluorescence ratio) (ARPE-19)
Cc1cc(O)c2c(c1)C(=O)c1cccc(O)c1C2=O [CHR, chrysophanol]	good stability for 7 h	could reduce intracellular ROS levels effectively
COc1ccc2cc3[n+](cc2c1OC)CCc1cc2c(cc1-3)OCO2 [BBH, berberine hydrochloride]	good stability for 7 h	could reduce intracellular ROS levels effectively
